The record followed here is PubChem BioAssay AID463094 (The Scripps Research Institute Molecular Screening Center, 2010).

Each structure is given as a SMILES string. The source made the active and inactive calls.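 How the source made its calls: active means inhibition at or above 90%; inactive means inhibition below 90%.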

Sequence of Glutathione S-transferase omega-1 (Homo sapiens) (P78417 whole entry, looked up): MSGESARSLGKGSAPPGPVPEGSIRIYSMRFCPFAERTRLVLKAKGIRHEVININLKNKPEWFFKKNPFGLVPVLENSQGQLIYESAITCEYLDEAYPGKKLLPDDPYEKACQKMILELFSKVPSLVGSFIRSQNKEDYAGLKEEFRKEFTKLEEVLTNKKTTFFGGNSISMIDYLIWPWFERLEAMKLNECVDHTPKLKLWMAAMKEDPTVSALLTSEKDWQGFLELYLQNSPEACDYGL

The assay concerns the target Glutathione S-transferase omega-1 (Homo sapiens) (UniProt P78417). The assay is described as follows: in situ GSTO1 inhibitors in cancer cells, late-stage follow-up, cell-based, MDA-MB-435, in-gel fluorescence (AID 463094). The note with it: MDA-MB-435 in situ, competitive ABPP gel fluorescence, 1 h; at 1 µM; stronger effect = higher value.
By inhibition is commonly meant how much of the control response was suppressed. In the case of `COc1ccc(N(C(=O)CCl)C(C(=O)NC2CCCCC2)c2cccnc2)cc1` (stereo not given), the inhibition is 95%.

Turning to `C#CCN(CCCN(C(=O)CCl)c1ccc([N+](=O)[O-])cc1)C(=O)C(F)(F)F`, the inhibition is 100%.

For `C#CCCCCNC(=O)C(c1ccc(OC)cc1)N(C(=O)CCl)c1cccc(Cl)c1` (stereo not given), the inhibition is 90%.

On to `O=S(=O)(c1ccc(Cl)cc1)N1CCC2(CC1)CO2`, for which the inhibition is 17% (inactive).

Turning to `COc1ccc(C(C(=O)NC2CCCCC2)N(C(=O)CCl)c2cccc(Cl)c2)cc1` (stereo not given), the inhibition was 100%.

Take `Cc1cccc(CN2CCN(C(=O)CCl)CC2)c1`: the inhibition is 53% (inactive).

For the compound `O=C(NC1CCCCC1)C(c1cccnc1)N(C(=O)CCl)c1ccc(F)cc1` (stereo not given), the inhibition was 100%.

On to `CCOC(=O)c1sc(N(Cc2ccccc2)C(=O)CCl)nc1C`, for which the inhibition was 65% (inactive).

Regarding `C#CCCC(=O)NCCCN(C(=O)CCl)c1ccc([N+](=O)[O-])cc1`, the inhibition is 97%.

Consider `C#CCNC(=O)C(c1ccc(OC)cc1)N(C(=O)CCl)c1cccc(Cl)c1` (stereo not given), for which the inhibition was 77% (inactive).

`COc1ccc(N(C(=O)CCl)C(C(=O)NCCc2ccccc2)c2cccs2)cc1Cl` (stereo not given): the inhibition was 95%.

For `O=C(NC1CCCCC1)C(c1cccnc1)N(C(=O)CCl)c1cccc(Cl)c1` (stereo not given), the inhibition is 100%.

Turning to `COc1ccc(C(C(=O)NC2CCCCC2)N(C(=O)CCl)c2ccc(Cl)cc2)cc1` (stereo not given), the inhibition is 60% (inactive).

Take `C#CCNC(=O)C(c1ccc(OC)cc1)N(C(=O)CCl)c1ccc(Cl)cc1` (stereo not given): the inhibition was 30% (inactive).

Consider `C#CCCCCNC(=O)C(c1cccnc1)N(C(=O)CCl)c1ccc(F)cc1` (stereo not given), for which the inhibition is 95%.
